Where two headings read alike, the source gives them in different places.
How the values were obtained:
[1] = target: T1, Drosophila melanogaster tyramine receptor (TyrR) (Drosophila melanogaster, UniProt P22270, C261Y); test: biochemical; format: binding
T1 construct: The open reading frame encodes a protein of 601 amino acids; expressed in transfected cells
Procedure: All steps are performed at 4° C. or on ice. Cells grown in Drosophila media are harvested in the same media by scraping from the dishes and then rinsing dishes with PBS. The cells are centrifuged at 1000 g for 3 min, washed once with PBS and centrifuged again as previously described. The cells are suspended in ice cold hypotonic buffer (10 mM Tris-Cl, pH 7.4), incubated on ice for 10 min, and lysed using a glass dounce homogenizer and tight glass pestle (Kontes Glass Co., Vineland, N.J.) with 10 strokes. Nuclei are pelleted by centrifugation at 600 g for 5 min. The supernatant is decanted and centrifuged at 30,000 g for 30 min to pellet a crude membrane fraction. The pellet is suspended in binding buffer (50 mM Tris-Cl, 5 mM MgCl2, pH 7.4). Protein concentration is determined by the Bradford Assay (Bio-Rad Laboratories, Hercules, Calif.). Membranes are frozen on dry ice then stored at −75° C. in aliquots.
For the receptor binding assay, radioligand binding is performed in 500 μl binding buffer containing 10-50 μg membrane protein and 4 nM ^3H-tyramine. The binding reaction is incubated at 23° C. in the presence and absence of 10 μM unlabeled tyramine. Reactions are terminated after 60 min by addition of 3 ml ice cold binding buffer and filtered over GF/C filters that has been soaked for 30 min in 0.3% polyethylenimine. Filters are rinsed one additional time with 3 ml binding buffer. […] The binding activity of tyramine receptor is also studied in the presence and absence of five plant essential oils, shown in FIG. 1. Binding data is analyzed by Scatchard plots using the software GraphPad Prism (San Diego, Calif.). All binding analyses are performed 3 times with duplicate samples in each assay.
The binding activity of ^3H-tyramine to membranes expressing the tyramine receptor is performed in the presence and absence of five plant essential oils. These chemicals are selected based on their insecticidal activity and the absence or presence and location of the hydroxyl group within the molecule. […] The specific activity is calculated as the difference between counts in the presence and absence of test chemical.

[2] = target: T1, Drosophila melanogaster tyramine receptor (TyrR); test: Intracellular calcium assay (Fura-2 AM) in S2 cells stably expressing pAC-TyrR; format: cell-based; conditions: for change in [Ca2+]i in response to plant essential oil: 25 μM, compared to EtOH treatment
Procedure: (§1) Cells are washed once with insect saline buffer. Cells are collected by scraping and suspended at 1×10^6 cells/ml in insect saline buffer with 5 μM Fura-2 AM. Cells are incubated at 23° C. for 1 hr in the dark, centrifuged, suspended in 1 ml insect saline buffer, and used immediately for calcium measurements. […] This assay is performed four separate times. Data are normalized by dividing each value by the background fluorescence at the beginning of the assay before adding test ligand.

[3] = target: T1, Drosophila melanogaster tyramine receptor (TyrR); conditions: saturation binding, 0.1-30 nM 3H-tyramine, membranes of clone#2 S2 cells; read-out: Kd for specific binding
[4] = tested on: S2 cells transfected with pAC lacking an insert; test: Intracellular calcium assay in S2 cells transfected with pAC lacking an insert; format: cell-based, Drosophila melanogaster; conditions: 10 μM TA, compared to untransfected S2 cells
Procedure: as §1

[5] = tested on: S2 cells transfected with plasmid lacking TyrR; test: cAMP assay in control S2 cells transfected with plasmid lacking TyrR; format: cell-based, Drosophila melanogaster; conditions: TA up to 100 μM, compared to non-transfected cells
Procedure: (§2) Twenty four hours before cell treatment, 300,000 cells from clone#2 and control cells are plated in 1 ml media with 25 μg blasticidin/ml into 12 well dishes (4.5 cm^2). For cell treatment, the media is aspirated and 1 ml PBS with 300 μM IBMX (3-isobutyl-1-methylxanthine) and the test reagent is added. […] After 10 min incubation, the PBS is aspirated and cells are incubated with 70% ethanol for 12 hours at −20° C. The cellular debris is centrifuged, and then the supernatant is removed and lyophilized to dryness. The amount of cAMP in the extract is determined by using a cAMP binding protein from the ^3H-cAMP Biotrak Assay System (Amersham Biosciences, Piscataway, N.J.) as per the manufacturer's instructions. Cell treatment is performed 3 times with duplicates at each concentration. To test the effects of calcium chelation on cAMP levels, the cells are incubated with 20 μM BAPTA/AM for 10 min before the addition of TA.

[6] = target: T1, Drosophila melanogaster tyramine receptor (TyrR); test: cell-based; format: cell-based; conditions: for decrease in cAMP production: 25 μM, vs ethanol-treated cells 0.9056±0.078 pmol cAMP
Procedure: as §2

[7] = tested on: tyramine receptor mutant (TyrR^neo30) Drosophila melanogaster; format: in vivo; conditions: for toxicity against TyrR^neo30 strain compared with wild type: topical application
Procedure: (§3) Quantitative Structure Activity Relationships (QSARs) for five monoterpenoid plant essential oils is determined against wild type and tyramine receptor mutant (TyrR^neo30) Drosophila melanogaster strains. […] In addition, monocyclic-unsaturated alcohol (a-terpenoil), and a monocylic di-unsaturated ketone (L-carvone) are also tested. […] Acetonic solutions of plant essential oils are prepared and different concentrations of each, that gave from 10%-100% mortality, are applied by topical application. Three replicates, with 5 flies per replicate, are used for each concentration. Controls treated with the same volume (0.5 μl/fly) of acetone. […] To determine whether the tyramine receptor is involved in the toxicity of tested plant essential oils, tyramine receptor mutant (TyrR^neo30) Drosophila melanogaster strain is topically treated with a dose equivalent to the determined LD50 for wild type strain. The mortality is calculated 24 hrs after treatment. Three replicates and 5 insects per replicate are used for the bioassay of each chemical. This bioassay is repeated five times.

[8] = tested on: wild type Drosophila melanogaster; test: Topical toxicity bioassay against wild type Drosophila melanogaster fly; format: in vivo; conditions: for Wild type-calculated LD50 values: topical application, probit analysis; for % Mortality at LD50 of wild type Drosophila melanogaster strain: Wild type: topical dose equal to wild type LD50, 24 h after treatment
Procedure: as §3

T1 sequence (P22270 27-601 C261Y): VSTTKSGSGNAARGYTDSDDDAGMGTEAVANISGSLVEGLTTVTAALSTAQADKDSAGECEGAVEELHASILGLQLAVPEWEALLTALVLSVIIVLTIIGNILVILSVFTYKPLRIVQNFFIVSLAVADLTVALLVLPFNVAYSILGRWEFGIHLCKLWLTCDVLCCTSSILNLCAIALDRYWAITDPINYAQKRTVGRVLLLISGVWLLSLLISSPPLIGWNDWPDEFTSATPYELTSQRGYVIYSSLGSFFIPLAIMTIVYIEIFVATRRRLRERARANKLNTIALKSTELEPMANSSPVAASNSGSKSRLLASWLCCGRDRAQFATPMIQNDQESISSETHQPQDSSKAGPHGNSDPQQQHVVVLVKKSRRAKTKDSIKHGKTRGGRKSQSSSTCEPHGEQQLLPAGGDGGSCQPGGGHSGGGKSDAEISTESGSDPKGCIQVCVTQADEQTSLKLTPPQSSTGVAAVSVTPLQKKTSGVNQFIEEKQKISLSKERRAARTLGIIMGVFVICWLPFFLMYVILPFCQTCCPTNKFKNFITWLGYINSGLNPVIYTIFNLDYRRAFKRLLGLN

## COC(=O)[C@@H]1[C@H]2C[C@H]3c4[nH]c5ccccc5c4CCN3C[C@@H]2CC[C@@H]1O [Yohimbine]
[1]
  Ki: 0.071 ± 0.001 µM

## Cc1ccc(N(CC2=NCCN2)c2cccc(O)c2)cc1 [Phentolamine]
[1]
  Ki: 0.125 ± 0.02 µM

## CC(=O)OCOC(=O)CN(CC(=O)OCOC(C)=O)c1ccccc1OCCOc1ccccc1N(CC(=O)OCOC(C)=O)CC(=O)OCOC(C)=O [BAPTA/AM]
[2]; 20 μM BAPTA/AM, 1 μM TA
  effect on TA-induced increase in free [Ca2+]i: inhibit the increase in free [Ca^2+]i

## NCCc1ccc(O)cc1 [^3H-tyramine]
[3]
  Kd: 0.00256 µM

## NCCc1ccc(O)cc1 [Tyramine (TA), Tyramine]
[4]
  effect on [Ca2+]i in control cells: does not increase the level of [Ca^2+]i
[2]; 1 μM TA, clone#2 cells
  change in [Ca2+]i in response to TA: rapid increase in [Ca^2+]i
[2]; TA application
  duration of transient peak in [Ca2+]i level: ~20 s
[2]; clone#2 cells
  lowest concentration that can increase [Ca2+]i levels: 20 nM
[5]
  effect on cAMP levels in control cells: significant effects on cAMP levels as compared to non-transfected cells are not produced
[1]
  Ki: 1.27 µM
[1]; ratio of Ki values
  affinity of TA relative to DL-octopamine for TyrR: about 22.58 fold
[6]
  IC50: 5.8 µM
[6]; TA 10 μM, 300 μM IBMX, basal 0.601±0.080 pmol cAMP
  decrease in the basal level of cAMP: 18%

## CC1=CCC(C(C)(C)O)CC1 (stereo not drawn) [a-terpineol, p-menth-1-en-8-ol]
[2]
  change in [Ca2+]i in response to plant essential oil: remarkable increase in [Ca^2+]i
[6]; 300 μM IBMX
  decrease in cAMP production: 22%

## NCCc1c[nH]c2ccc(O)cc12 [Serotonin (SE), Serotonin]
[1]
  Ki: 89.5 ± 9.01 µM

## CN(C)CCCN1c2ccccc2Sc2ccc(Cl)cc21 [Chlorpromazine]
[1]
  Ki: 0.193 ± 0.05 µM

## NCCc1c[nH]cn1 [Histamine (His), Histamine]
[1]
  Ki: 193 ± 16.8 µM

## NCCc1ccc(O)c(O)c1 [Dopamine (DA), Dopamine]
[1]
  Ki: 57.5 ± 3.91 µM

## Cc1ccc(C(C)C)cc1 [p-cymene, 1-methyl-4-(1-methylethyl)benzene]
[2]
  change in [Ca2+]i in response to plant essential oil: slight increase in [Ca^2+]i
[7]; in vivo
  % Mortality at LD50 of wild type Drosophila melanogaster strain: TyrR^neo30: 56.0%
[7]
  toxicity against TyrR^neo30 strain compared with wild type: does not affect the toxicity
[8]
  Wild type-calculated LD50 values: 15.5 μg/fly
  % Mortality at LD50 of wild type Drosophila melanogaster strain: Wild type: 57.3%
[6]; 300 μM IBMX
  decrease in cAMP production: 13%

## C=C(C)[C@@H]1CC=C(C)C(=O)C1 [L-carvone, p-mentha-6,8-dien-2-one]
[2]
  change in [Ca2+]i in response to plant essential oil: remarkable increase in [Ca^2+]i
[7]
  toxicity against TyrR^neo30 strain compared with wild type: does not affect the toxicity
[7]; topical dose equal to wild type LD50, 24 h after treatment
  % Mortality at LD50 of wild type Drosophila melanogaster strain: TyrR^neo30: 38.7%
[8]
  Wild type-calculated LD50 values: 2.3 μg/fly
  % Mortality at LD50 of wild type Drosophila melanogaster strain: Wild type: 37.3%
[8]; wild type strain
  toxicity of L-carvone relative to a-terpineol: about 5 fold
[6]; 300 μM IBMX
  decrease in cAMP production: 24%

## NCC(O)c1ccc(O)cc1 (racemic) [Octopamine (OA), DL-octopamine]
[1]; competitive binding vs 4 nM 3H-tyramine, membranes from Schneider Drosophila cells expressing TyrR, mean and standard deviation, read-out: Ki
  Ki: 28.7 µM
